In PubChem BioAssay AID493240 (Broad Institute, 2011):

Test system: SK-MEL-5 viability, ATP luminescence (CellTiter-Glo), 24 h
Test: SK-MEL-5 parental cell viability loss, dose response, orthogonal assay for MITF inhibitor project, CellTiter-Glo, cherry-picked, set 3 (AID 493240)

| Structure (SMILES) | AC50 [µM] |
| --- | --- |
| CC(C)=NOc1cc(NC(=O)CCl)cc([N+](=O)[O-])c1 | 17.4 |
| S=C=Nc1cccc(C2(N3CCCCC3)CCCCC2)c1 | 20.4 |
| CCN1CCN(CCCNC(=O)c2ccc3c(c2)NC(=O)/C(=C\c2cccc(C)c2)S3)CC1 | 20.3 |
| COc1cccc(CNCCc2c[nH]c3ccccc23)c1OCc1ccccc1 | 16.8 |
| Cc1cc(C)cc(NC(=O)c2ccc([N+](=O)[O-])o2)c1 | 27.7 |
| CC(=O)N(C)C1=C(N2CCOCC2)C(=O)c2ccccc2C1=O | 7.92 |
| CCN(CC)CCCNC1=C(Cl)C(=O)c2ccccc2C1=O | 5.82 |
| CC1CN(C(=O)CCC(=O)NCCCN2CCC(Cc3ccccc3)CC2)c2cc(Cl)ccc2O1 (centres undefined) | 6.98 |
| C#CC(=O)N(c1ccc(OC)c(OC)c1)C(C(=O)NC1CCCC1)c1cccs1 (centres undefined) | 22.1 |
| O=C(N/N=C/c1ccc(F)cc1)c1c(O)c2ccccc2[nH]c1=O | 26.9 |
| COc1ccc(CNCCC(c2ccc(F)cc2)c2ccc(OC)cc2)cc1 (centres undefined) | 16.6 |
| COc1ccc(-c2cc3c(nn2)-c2ccccc2C3=O)cc1 | 15 |
| COC(=O)c1c(NC(=O)c2nc3ccccc3s2)sc2c1CC(C)(C)NC2(C)C | 22.1 |
| N=c1n(CC(=O)c2ccc(Br)s2)c2ccccc2n1Cc1ccccc1 | 20 |
| CN(C)CCNC(=O)/C(=C/c1ccc(-c2ccc(Cl)cc2Cl)o1)NC(=O)c1ccccc1 | 19.4 |
| CCOc1c(Br)cc(CNC2CCCCCCC2)cc1OC | 16.5 |
| CC(C)C(CCNC1CCN(C)CC1)c1ccc(Cl)cc1 (centres undefined) | 23.1 |
| CCSCCc1nnc(NC(=O)Nc2cccc(C(F)(F)F)c2)s1 | 16.6 |
| COC(=O)C1=C(C)N(Cc2ccccc2)C(=NCC(C)C)N[C@H]1c1cccc(C(F)(F)F)c1 | 17.4 |
| Cc1c(CCOC(=O)c2ccc(Cl)cc2Cl)sc[n+]1CC(=O)c1ccc(Br)cc1 | 28.8 |
| CCC(C)(C)c1ccc(OCCCC[n+]2ccccc2)c(C(C)(C)CC)c1 | 15.3 |
| COc1cc(SC)ccc1C(=O)Nc1nc(C)cs1 | 28.4 |

| Structure (SMILES) | AC50 [µM] |
| --- | --- |
| Cn1cccc1C(=O)NC(=O)COC(=O)c1ccc(S(C)(=O)=O)c([N+](=O)[O-])c1 | 31.4 |
| CCc1ccc(NC2=CC(=O)C(=O)c3ccccc32)cc1 | 5.85 |
| CC1=C(CC(=O)c2ccccc2)C(=O)c2ccccc2C1=O | 7.67 |
| Cc1ccc(C#CC[N+]2(CC#Cc3ccc(C)cc3)CCCCC2)cc1 | 16 |
| Cc1ccc(C(C)C)c(OCc2nn(CC(=O)c3ccc(OC(F)F)cc3)c3[n+]2CCCCC3)c1 | 20.2 |
| Cc1cc(C)cc(NS(=O)(=O)c2ccc3c(c2)c(=O)n(C)c(=O)n3C)c1 | 25.5 |
| Cc1cc(C(C)(C)C)cc(C)c1Cn1c2[n+](c3ccc(C(F)(F)F)cc31)CCCCC2 | 16 |
| CCS(=O)(=O)c1ccc(N=Nc2ccc(O)c3ncccc23)c(OC)c1 | 33.5 |
| Cc1ccc(Oc2c(C(N)=O)cc([N+](=O)[O-])cc2[N+](=O)[O-])cc1 | 21.8 |
| C=CCn1c(C)cc(C2=NNC(=NCC)SC2)c1C | 12.9 |
| Cc1ccc(C(=O)N/N=C\c2ccc([N+](=O)[O-])s2)cn1 | 33.9 |
| COC1=C(c2ccccc2)C(=O)c2ccccc2C1=O | 9.91 |
| O=C1Nc2ccc(Br)cc2/C1=C/C(=O)c1ccc2c(c1)OCO2 | 32.6 |
| CC(=O)c1c(C)oc2c1C(=O)c1ccccc1C2=O | 7.62 |
| c1ccc2cc3c(NCCN4CCOCC4)ccnc3cc2c1 | 3.68 |
| C=CCNC1=C(Cl)C(=O)c2ccccc2C1=O | 7.68 |
| CCNC1=C(Cl)C(=O)c2ccccc2C1=O | 9.44 |
| C#CC(=O)N(c1ccc(OC)cc1OC)C(C(=O)NC1CCCC1)c1cccs1 (centres undefined) | 19.9 |
| O=C(C#Cc1ccccc1)c1cccc([N+](=O)[O-])c1 | 26.2 |
| COc1cccc2sc(N(CCCN(C)C)C(=O)C(c3ccccc3)c3ccccc3)nc12 | 18.3 |
| O=c1c2ccccc2nc(/C=C/c2ccc([N+](=O)[O-])o2)n1-c1ccc(O)cc1 | 14.9 |
| CCC(=O)N1CCN(c2ccc(NC(=O)c3ccc([N+](=O)[O-])o3)cc2Cl)CC1 | 24.8 |

| Structure (SMILES) | AC50 [µM] |
| --- | --- |
| O=C(N/N=C/c1cccc2cccnc12)c1ccccc1O | 32.9 |
| O=C(Nc1ccc(N2CCCC2)c(Cl)c1)c1ccc([N+](=O)[O-])o1 | 29.9 |
| Cc1ccc(S(=O)(=O)N2CCCCC2)cc1NC(=O)Cn1ncc(Cl)c(Cl)c1=O | 19.3 |
| O=C1c2cc(F)ccc2-n2c1nc1ccccc1c2=O | 5.5 |
| O=C(Nc1cccc(Cl)c1)Nc1cc(S(=O)(=O)N2CCCCC2)ccc1Cl | 22.9 |
| COc1ccc(-c2c[n+](CC(=O)OC3CC(C)CCC3C(C)C)c3n2CCC3)cc1 (centres undefined) | 14.5 |
| Cc1ccc(C(=O)C[n+]2cc(-c3ccc(C)cc3)n3c2CCCCC3)cc1 | 14.4 |
| CCOc1ccc(-n2c(-c3ccc(Br)cc3)c[n+]3c2CCCCC3)cc1 | 20.5 |
| Cc1c(OCC(=O)NC2CC(C)(C)NC(C)(C)C2)ccc2c1oc(=O)c1ccccc12 | 23.2 |
| COc1ccccc1NS(=O)(=O)c1cccc(C(=O)N/N=C/c2ccc([N+](=O)[O-])o2)c1 | 17.3 |
| Nc1c(N(CCC2=CCCCC2)C(=O)COc2ccc(F)cc2)c(=O)[nH]c(=O)n1Cc1ccccc1 | 10.9 |
| C(#Cc1ccccc1)C[N+]1(CC#Cc2cccc3ccccc23)CCCC1 | 17.9 |
| Cc1ccc(-c2nnc(SCC(=O)Nc3ccccc3F)o2)cc1 | 21.7 |
| Cc1nc2ccccc2n1/N=C/c1ccc([N+](=O)[O-])s1 | 7.45 |
| CN(C)S(=O)(=O)c1ccc(-c2csc(N/N=C/c3ccco3)n2)cc1 | 16.2 |
| O=C(NCC1CCCCC1)C1(CC2CC(c3cccc(Br)c3)=NO2)CCNCC1 (centres undefined) | 18 |
| O=C(Nc1ccc(Nc2ccncc2)cc1)c1ccc([N+](=O)[O-])cc1 | 34.3 |
| COCCCn1[nH]c2c3c(ccc2c1=O)C(=O)c1ccccc1C3=O | 16.5 |
| CC[n+]1c(/C=C/N(C)c2ccccc2)sc2ccc(Cl)cc21 | 19.8 |
| O=C1C=C(N(CCO)Cc2ccccc2)c2ccccc2C1=O | 13.3 |
| CCOc1cc(/C=N/N=C(N)N)ccc1OCc1ccc(Cl)cc1 | 19.2 |
| Cc1cc(/C=C2\Sc3ccccc3N2C)cc(C)[n+]1CC1CCCO1 (centres undefined) | 10 |

| Structure (SMILES) | AC50 [µM] |
| --- | --- |
| CCOC(=O)CCc1ccc(NC(=O)/C=C/c2ccc([N+](=O)[O-])o2)cc1 | 28.4 |
| COc1ccc2nc(C)cc(NCc3cccc(C(F)(F)F)c3)c2c1 | 27.9 |
| O=C(N/N=C\c1ccc([N+](=O)[O-])s1)c1cncc(Br)c1 | 21 |
| CCOC(=O)c1c(C)oc2c(F)c(F)c(F)c(F)c2c1=O | 22.7 |
| COc1cc(NC(=O)COc2cc(O)c3c(c2)OC(C)(C)CC3=O)cc(OC)c1OC | 23.4 |
| N#C/C(=C(/O)c1ccc([N+](=O)[O-])o1)c1nc2ccccc2[nH]1 | 16.3 |
| COc1cc(CNC2CCCC2)cc(Cl)c1OCc1ccccc1Cl | 16.8 |
| CCOC(=O)c1c(NC(C)=O)sc2c(OCC(O)CNC(C)(C)C)c(Br)ccc12 (centres undefined) | 19.1 |
| CCCCN(C)CC(O)Cn1cc(/C=C/C(=O)c2cccs2)c2ccccc21 (centres undefined) | 18.8 |
| CS(=O)(=O)c1ccc(C(=O)OCC(=O)NCc2cccs2)cc1[N+](=O)[O-] | 29.7 |
| Cc1ccc(NC(=O)c2ccc([N+](=O)[O-])s2)cc1S(=O)(=O)N1CCOCC1 | 16.2 |
| COc1ccc(Br)cc1/C=C/C(=O)c1ccc(NC(C)=O)cc1 | 26.7 |
| O=C(N/N=C/c1ccc(O)c2ncccc12)c1cccc(Br)c1 | 25.7 |
| O=C1Nc2cc(C(=O)NCCN3CCCCCC3)ccc2S/C1=C\c1ccccc1 | 19.2 |
| CN(C)CCNC(=O)/C(=C/c1ccc(-c2ccc(Cl)cc2)o1)NC(=O)c1ccccc1 | 20.4 |
| CCc1cc[n+](C2=C([O-])c3ccccc3C(=O)/C2=N\S(=O)(=O)c2cccs2)cc1 | 5.72 |
| Cc1cc(C)n(-c2ccc(C(=O)Nc3ccc(C)c(S(=O)(=O)N4CCOCC4)c3)cc2)n1 | 28.1 |
| CCn1c(/C=C/Nc2ccccc2)[n+](CC)c2cc(Cl)c(Cl)cc21 | 28.7 |
| CC[n+]1c(-c2ccccc2)c2cc(N)ccc2c2ccc(N)cc21 | 15 |
| N/C(=N\OC(=O)c1ccccc1Cl)c1ccccn1 | 28.8 |
| COc1ccc(CCn2c(=S)[nH]c3cc(C(=O)NCc4ccco4)ccc3c2=O)cc1OC | 22.8 |
| Cc1ccccc1OCc1n(CC(=O)OC2CC(C)CCC2C(C)C)c2ccccc2[n+]1C (centres undefined) | 15.8 |

| Structure (SMILES) | AC50 [µM] |
| --- | --- |
| Cc1cc(C)c[n+](C2=C([O-])c3ccccc3C(=O)/C2=N\S(=O)(=O)c2cccs2)c1 | 15.4 |
| Cc1cc2oc3ccc(NCCC4CCCN4C)cc3c(=O)c2cc1C (centres undefined) | 17.6 |
| N=c1n(CC(=O)c2ccc([N+](=O)[O-])cc2)c2ccccc2n1Cc1ccc(Cl)cc1 | 16.9 |
| CCN(CC)CCn1nc2c3c(cccc3c1=O)-c1ccccc1-2 | 20.3 |
| CS(=O)(=O)c1nc(-c2ccc(F)cc2)cc(C(F)(F)F)n1 | 20.3 |
| CCN1CCN(C2=C(NS(=O)(=O)c3ccc(Br)cc3)C(=O)c3ccccc3C2=O)CC1 | 22.9 |
| CCCCN(CC)CCCNC(=O)c1cc2c(=O)n(CC)c3ccccc3c2s1 | 23.2 |
| CCOC(=O)c1ccc2c(c1)n(CC)c(/C=C/N(C)c1ccccc1)[n+]2CC | 13.3 |
| Cc1ccc(S(=O)(=O)/N=C2\C(=O)c3ccccc3C([O-])=C2n2cc[n+](CCC(C)C)c2)cc1 | 15.6 |
| CN1CCN(C2=C(NS(=O)(=O)c3ccccc3)C(=O)c3ccccc3C2=O)CC1 | 16.9 |
| O=C(CCl)Nc1ccc(Sc2ccc(NC(=O)CCl)cc2)cc1 | 23.6 |
| CC(=O)Nc1ccc(S(=O)(=O)NC2=C(N3CCN(C)CC3)C(=O)c3ccccc3C2=O)cc1 | 22.8 |
| Oc1c(CN2CCCCC2)cc(COCc2ccccc2)c2cccnc12 | 16.9 |
| CCOC(=O)CSC1=NC(=O)/C(=C/c2ccc(OC)cc2)S1 | 28.5 |
| COc1cc(/C=N/N=C(N)N)ccc1OCc1ccc(Cl)cc1 | 18.8 |
| Cc1ccc(C(C)C)c(OCc2nn(CC(=O)c3ccc(Cl)cc3)c3[n+]2CCCCC3)c1 | 18.4 |
| CC(=O)Nc1ccc(Nc2c3ccccc3nc3ccccc23)cc1 | 16.6 |
| CCN(CC)S(=O)(=O)c1ccc(NC(=O)c2cccnc2Cl)c(NC(=O)c2cccnc2Cl)c1 | 12.3 |
| Cc1cc(C)c2sc(N(CCCN(C)C)C(=O)COc3ccc(Cl)cc3)nc2c1 | 24.7 |
| O=C1/C(=N\S(=O)(=O)c2cccs2)C([n+]2ccccc2)=C([O-])c2ccccc21 | 5.27 |
| CC1=CC2/C=C(\C)CCC(O)C(O)/C=C/C(=O)C23C(=O)NC(CC(C)C)C3C1C (centres undefined) | 15.9 |
